Laboratory results: patent US10172549B2, “Methods of facilitating positioning of electrodes” (Cardionomic, Inc., priority 2016, dated 2019)

System: right ventricle contractility and left ventricle contractility
Experiment: Heartbeat-by-heartbeat correlation of right and left ventricle contractility after a change, max(dP/dt) from pressure sensors as surrogate for contractility
Format: in vivo, ovine
Details: after injection
Description: The correlation was a heartbeat-by-heartbeat analysis. Pressure measurements, taken by a Millar catheter comprising a MEMS pressure sensor, in units of max(dP/dt) was used as a surrogate for contractility.
The first change, a dobutamine injection, provided a very high contractility increase greater than 500%. The average correlation between right ventricle contractility and left ventricle contractility was very good at 0.91, where 1.00 is a perfect correlation. Accordingly, if a subject is given a dobutamine injection, measuring changes to right ventricle contractility can provide accurate information about changes to left ventricle contractility. The first change was repeated three times.
The second change, calcium injection at 5 mL, provided a contractility increase of about 20%. […] The average correlation between right ventricle contractility and left ventricle contractility using a Millar (MEMS) sensor on a catheter was very good at 0.91. The average correlation between right ventricle contractility and left ventricle contractility using a fluid-filled lumen of a Swan-Ganz catheter in communication with an external pressure sensor was also very good at 0.87. Accordingly, under certain circumstances such as measurement of an animal (normal, non-HF ovine model) model, if a subject is given a calcium injection, measuring changes to right ventricle contractility with a MEMS sensor or a fluid filled lumen can provide accurate information about changes to left ventricle contractility.
The fourth change, neurostimulation as described herein, provided a contractility increase of about 28%. The correlation between right ventricle contractility and left ventricle contractility was very good at 0.90. Accordingly, if a subject is given neurostimulation, measuring changes to right ventricle contractility can provide accurate information about changes to left ventricle contractility. […] Thereafter, the left ventricle contractility tapered off logarithmically or exponentially, but the right ventricle contractility decreased very slowly. These differences help to show why the correlation between left ventricle contractility and right ventricle contractility are poorly correlated for calcium injections. The fourth change was not repeated.

Row | Molecule | Contractility % Increase | Contractility % Increase (listed as dobutamine injection) | Contractility % Increase (listed as calcium injection)
1 | CC(CCc1ccc(O)cc1)NCCc1ccc(O)c(O)c1 (stereo not shown) [Dobutamine Injection, dobutamine] | >500% | greater than 500% | –
2 | calcium [Calcium Injection] | ~20% | – | about 20%
